# Like-named read-outs stand apart in the source and are kept apart here.
# Legend:
# [1] = tested on: KB human nasopharyngeal carcinoma cells (FRα/PCFT/RFC); assay: Growth inhibition of KB human tumor cells; format: cell-based
# [2] = tested on: SKOV3 human ovarian tumor xenografts; assay: In vivo efficacy trial against SKOV3 xenografts in SCID mice; details: folate-deficient diet; 4 28 mg/kg, 7 16 mg/kg i.v. Q4dx3
# [3] = molecular target: TS (Homo sapiens, UniProt P04818); assay: Isolated enzyme assay TS; format: biochemical; details: nucleoside protection and isolated enzyme assays (not shown)
# [4] = molecular target: T1, DHFR (Homo sapiens, UniProt P00374); assay: Isolated enzyme assay DHFR; format: biochemical; details: nucleoside protection and isolated enzyme assays (not shown)
# T1 sequence (P00374 1-187): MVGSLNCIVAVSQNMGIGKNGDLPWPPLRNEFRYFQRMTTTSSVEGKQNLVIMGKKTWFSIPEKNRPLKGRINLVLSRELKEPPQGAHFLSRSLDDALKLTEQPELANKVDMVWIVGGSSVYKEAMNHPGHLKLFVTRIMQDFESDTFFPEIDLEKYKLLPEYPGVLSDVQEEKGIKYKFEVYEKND
# [5] = molecular target: T2, recombinant human GARFTase (Homo sapiens, UniProt P22102); assay: In vitro GARFTase inhibition assay; format: biochemical; details: from Ki values
# T2 sequence (P22102 810-1010 limits assumed): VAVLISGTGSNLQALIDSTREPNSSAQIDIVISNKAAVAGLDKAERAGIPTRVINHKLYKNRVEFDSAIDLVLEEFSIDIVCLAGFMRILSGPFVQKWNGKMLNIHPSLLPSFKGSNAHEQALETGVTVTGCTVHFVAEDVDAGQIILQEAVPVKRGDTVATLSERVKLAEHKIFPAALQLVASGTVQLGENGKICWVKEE
# [6] = molecular target: FRβ (Homo sapiens, UniProt P14207); assay: [3H]folic acid competition binding to FRβ on D4 CHO cells
# [7] = molecular target: T3, PCFT (Homo sapiens, UniProt Q96NT5); assay: PCFT uptake and transport kinetics in R2/PCFT4 CHO cells; format: cell-based
# T3 sequence (Q96NT5 1-459): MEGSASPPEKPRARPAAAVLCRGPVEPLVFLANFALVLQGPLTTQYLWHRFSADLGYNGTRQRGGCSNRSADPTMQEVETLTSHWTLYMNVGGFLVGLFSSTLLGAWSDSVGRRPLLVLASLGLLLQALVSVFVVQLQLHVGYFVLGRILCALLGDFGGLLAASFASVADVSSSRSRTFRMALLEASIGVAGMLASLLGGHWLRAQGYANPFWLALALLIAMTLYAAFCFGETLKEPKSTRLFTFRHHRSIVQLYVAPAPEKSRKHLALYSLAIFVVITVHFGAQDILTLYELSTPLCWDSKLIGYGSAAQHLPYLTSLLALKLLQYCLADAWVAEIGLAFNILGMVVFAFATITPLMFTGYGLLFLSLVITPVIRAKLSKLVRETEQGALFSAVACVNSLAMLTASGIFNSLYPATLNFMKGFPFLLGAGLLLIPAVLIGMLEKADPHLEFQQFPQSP
# [8] = molecular target: FRα (Homo sapiens, UniProt P15328); assay: [3H]folic acid competition binding to FRα on RT16 CHO cells
# [9] = read-out: IC50 for inhibition of proliferation, KB
# TS, sequence (P04818 whole entry): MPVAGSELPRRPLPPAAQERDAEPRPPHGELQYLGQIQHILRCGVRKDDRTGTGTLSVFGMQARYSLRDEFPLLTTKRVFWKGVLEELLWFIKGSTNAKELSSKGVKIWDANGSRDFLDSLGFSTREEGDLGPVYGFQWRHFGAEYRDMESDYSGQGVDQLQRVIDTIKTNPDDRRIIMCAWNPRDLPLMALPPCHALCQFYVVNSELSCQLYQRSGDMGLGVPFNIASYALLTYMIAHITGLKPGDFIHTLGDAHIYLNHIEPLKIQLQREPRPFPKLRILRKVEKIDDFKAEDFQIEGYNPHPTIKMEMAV
# FRβ, sequence (P14207 17-255): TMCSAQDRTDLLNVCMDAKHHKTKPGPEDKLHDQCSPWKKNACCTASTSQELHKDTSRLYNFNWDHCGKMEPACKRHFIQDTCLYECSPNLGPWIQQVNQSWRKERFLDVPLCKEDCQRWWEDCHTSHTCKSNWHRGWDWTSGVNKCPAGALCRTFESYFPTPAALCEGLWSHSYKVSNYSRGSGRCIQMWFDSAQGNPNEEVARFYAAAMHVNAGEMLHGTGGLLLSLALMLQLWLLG
# FRα, sequence (P15328 25-257): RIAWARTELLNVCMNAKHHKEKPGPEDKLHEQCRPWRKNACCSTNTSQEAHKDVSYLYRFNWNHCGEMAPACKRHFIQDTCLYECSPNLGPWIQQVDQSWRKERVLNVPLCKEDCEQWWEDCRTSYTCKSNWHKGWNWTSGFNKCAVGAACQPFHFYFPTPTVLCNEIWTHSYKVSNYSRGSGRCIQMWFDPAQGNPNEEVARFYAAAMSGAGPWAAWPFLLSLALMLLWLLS
Structure (SMILES),"IC50 [1, 9] [nM]",tumor growth delay (T–C value) [2] [days],inhibition of TS [3],inhibition of DHFR [4],other results
"C#CCC(Cc1cnc2nc(N)nc(N)c2n1)c1ccc(C(=O)N[C@@H](CCC(=O)O)C(=O)O)cc1 (stereo partly drawn) [PDX, N-(4-{1-[(2,4-diaminopteridin-6-yl)methyl]but-3-yn-1-yl}-benzoyl)-L-glutamic acid]",0.47,,,,"IC50 ([1]; read-out: IC50 for inhibition of proliferation, KB (+FA)): 1.94 nM"
Nc1nc2[nH]c(CCCc3ccc(C(=O)N[C@@H](CCC(=O)O)C(=O)O)s3)cc2c(=O)[nH]1 [compound 4],0.26,13,,,
"Nc1nc(N)c2c(CCCc3csc(C(=O)N[C@@H](CCC(=O)O)C(=O)O)c3)coc2n1 [compound 6, (S)-2-({4-[3-(2,4-Diamino-furo[2,3-d]pyrimidin-5-yl)-propyl]-thiophene-2 carbonyl}-amino)-pentanedioic Acid]",,,Neither 6 nor 8 were potent inhibitors of DHFR or TS,Neither 6 nor 8 were potent inhibitors of DHFR or TS,
"Nc1nc2[nH]c(CCCc3cc(C(=O)N[C@@H](CCC(=O)O)C(=O)O)cs3)cc2c(=O)[nH]1 [compound 7, (S)-2-({5-[3-(2-Amino-4-oxo-4,7-dihydro-3H-pyrrolo[2,3-d]-pyrimidin-6-yl)-propyl]-thiophene-3-carbonyl}-amino)-pentanedioic Acid]",,13,,,"fold more potent as inhibitor of human GARFTase than 4 [5]: ~ 7 fold; fold more potent as inhibitor of human GARFTase than PMX [5]: > 100 fold; relative binding affinity to FRβ, % of the affinity for folic acid [6]: 35–40 % of the affinity for folic acid; PCFT uptake of [3H]7 in excess of that for [3H]PMX ([7]; 0.5 μM, pH 5.5, 37 °C): ~ 40%; Vmax, PCFT transport, pH 5.5 ([7]; pH 5.5): 24.62 (±6.60) pmol/mg/min; Vmax, PCFT transport, pH 6.8 ([7]; pH 6.8): 3.0 (±0.3) pmol/mg/min; relative binding affinity to FRα, % of that for folic acid [8]: approximately 60 % of that for folic acid"
"Nc1nc(N)c2c(CCCc3cc(C(=O)N[C@@H](CCC(=O)O)C(=O)O)cs3)coc2n1 [compound 8, (S)-2-({5-[3-(2,4-Diamino-furo[2,3-d]pyrimidin-5-yl)-propyl]-thiophene-3-carbonyl}-amino)-pentanedioic Acid]",,,Neither 6 nor 8 were potent inhibitors of DHFR or TS,Neither 6 nor 8 were potent inhibitors of DHFR or TS,

# Source: paper PMC4714714 (Journal of medicinal chemistry, 2015)
